Source: patent US8513251B2, “Pyridazinone compounds” (Takeda Pharmaceutical Company Limited, priority 2009, dated 2013)

Tested on: Male ICR mice
Test: Improvement of MK-801-induced prepulse inhibition (PPI) deficits
Assay type: in vivo
Settings: 82 dB prepulse; i.p. 30 min before testing; MK-801 0.3 mg/kg s.c. (FIG. 3)
Source text: Male ICR mice were supplied by CLEA Japan, Inc (Japan). After arrival to the vivarium, animals were allowed a minimum of 1 week for acclimation. They were housed under a 12:12-h light/dark cycle in a temperature- and humidity-controlled laboratory and allowed food and water ad libitum. The care and use of the animals and the experimental protocols used in this research were approved by the Experimental Animal Care and Use Committee of Takeda Pharmaceutical Company, Ltd (Osaka, Japan).
The compounds were suspended in 0.5% methylcellulose in saline or distilled water, and administered by intraperitoneally (i.p.) or orally (p.o.), respectively. Methamphetamine (Dainippon Sumitomo Pharma Co., Ltd.) and MK-801 (Sigma-Aldrich, St Louis, Mo.) were dissolved in saline, and administered subcutaneously (s.c.). […]
PPI is a measure of sensorimotor gating and is one of a few neuropsychological measures in which humans and rodents can be evaluated in a similar fashion (Psychopharmacology (Berl) 2001, vol. 156: 117-154). We evaluated whether compound could reverse PPI deficits induced by MK-801 using male ICR mice. […] Placement of mice inside the cylinders allowed the whole-body startle responses induced by the acoustic stimuli to be measured via the transduction of movement into analog signals by a piezoelectric unit attached to the platform. […]

## Cc1nc2n(c(=O)c1CCN1CCC(c3noc4cc(F)ccc34)CC1)CCCC2 [Risperidone]
  MK-801-induced PPI deficits: significantly reversed
